Literature values as cited in patent publication US20030109678A1, “Methods and means for regulation of gene expression” (priority 2000, published 2003).

Target: mutated form of the human estrogen receptor (ER), G521R mutation (Homo sapiens, UniProt P03372, G521R)
Sequence (P03372 whole entry G521R): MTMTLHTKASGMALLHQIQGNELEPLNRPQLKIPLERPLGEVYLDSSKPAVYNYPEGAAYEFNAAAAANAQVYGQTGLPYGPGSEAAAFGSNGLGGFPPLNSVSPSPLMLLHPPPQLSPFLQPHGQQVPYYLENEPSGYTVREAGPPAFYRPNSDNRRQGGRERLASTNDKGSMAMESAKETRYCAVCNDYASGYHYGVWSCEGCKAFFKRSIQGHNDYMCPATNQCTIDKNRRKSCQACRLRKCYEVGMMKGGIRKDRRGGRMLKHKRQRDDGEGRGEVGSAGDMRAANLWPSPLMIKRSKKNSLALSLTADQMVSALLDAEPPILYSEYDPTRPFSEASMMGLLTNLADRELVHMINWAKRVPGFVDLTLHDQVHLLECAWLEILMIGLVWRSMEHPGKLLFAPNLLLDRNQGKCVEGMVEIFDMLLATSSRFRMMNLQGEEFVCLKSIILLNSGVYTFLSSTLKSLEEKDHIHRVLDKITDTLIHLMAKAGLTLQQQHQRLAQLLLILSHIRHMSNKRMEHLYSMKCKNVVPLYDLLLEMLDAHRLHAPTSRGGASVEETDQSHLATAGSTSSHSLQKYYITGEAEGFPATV

Question: With 4-hydroxytamoxifen as the substance, how does the “binding by G521R ER” value read?
Answer: efficiently binds
